Consider two compounds from PMC6801819, “Exogenous Iron Increases Fasciocidal Activity and Hepatocellular Toxicity of the Synthetic Endoperoxides OZ78 and MT04” (International Journal of Molecular Sciences, 2019).

Data set [1] deals with adult F. hepatica. As to the kind of experiment: In vitro/ex vivo adult worm viability assay. The format is cell-based, Fasciola hepatica. The settings on record: iron or hemin with 1% DMSO, no drug, 48 h or 72 h. As for the experimental part: The experiments were performed, as described previously. Adult F. hepatica were collected from bovine liver bile ducts obtained from the local slaughterhouse (Basel, Switzerland). After careful washing, a single adult worm was placed per well (6-well plate, Costar, MA, USA) containing 5.4 mL RPMI 1640 (Gibco, N.Y., USA), supplemented with 1% (v/v) antibiotics (50 µg/mL streptomycin and 50 U/mL penicillin), 1% (v/v) drug solution, […] Control worms were incubated in 1% (v/v) DMSO combined with iron or hemin. Experiments were conducted in triplicates and repeated once. Cultures were kept at 37 °C in an atmosphere of 5% CO2. The viabilities of treated and untreated worms were monitored at 0, 24, 48, and 72 h. Worms were examined by eye and/or using a dissecting microscope (20× lenses). The viability of adult flukes was scored using the following scale: 4: normal activity; movements were visible without a microscope, 3: reduced activities, 2: very weak activities detected only using microscopic magnification, and 1: death of worm (no movement observed for two min using a microscope).

For data set [2], the system named is HepG2 cells. The data set can be described thus: Adenylate kinase leakage (membrane integrity test). The format is cell-based, human. As for the experimental part: (§1) Stock solutions of the drugs tested were prepared in DMSO 100% (v/v).
(§2) In viability assays, HepG2 cells were treated with 0.1% Triton-X or 0.1% DMSO for positive or negative control, respectively.
The assay was used according to the protocol supplied by the manufacturer.

In data set [3] the test system is HepG2 cells. As to the kind of experiment: Cellular ATP content (CellTiter-Glo). The format is cell-based, human. As for the experimental part:
as §1, §2
To assess cellular ATP content, HepG2 cells were seeded in white-wall 96-well plates with a clear bottom (Nunc). One day after seeding, cells were treated with the respective drugs. […] Luminescence was measured using Tecan M200 Infinite Pro.

Data set [4] relates to HepG2 cells. The data set can be described thus: Cellular reactive oxygen species (DCF-DA). The format is cell-based, human. On the procedure:
Stock solutions of the drugs tested were prepared in DMSO 100% (v/v). […] LC-MS measurements confirmed the stability of the compounds (data not shown). Treatments with AS, MT04, or OZ78 (100 or 500 µM) were performed either alone or in combination with 8% (v/v) hemin or FeCl2 solution for 24 h. The final iron concentration used was 122 µM (stock 1.5 mM) based on previous in vitro studies with F. hepatica. Dichlorodihydrofluorescein diacetate (DCF-DA) dissolved in DMSO was used to assess cellular formation of reactive oxygen species (ROS). HepG2 cells were seeded in a black-wall 96 well plate with a clear bottom as described above. Briefly, 30 min before treatment started, DCF-DA was added to the cells at a final concentration of 25 µM. DCF-DA was removed completely before the drugs were added. ROS was measured after 90 min and 24 h of drug exposure using a Tecan M200 Infinite Pro (excitation 485 nm, emission 535 nm).

As for `[Cl][Fe][Cl]` [Fe^2+, Fe(II)chloride], in data set [1], the “viability of adult F. hepatica” value was “slight reduction in viability”. Also, in data set [2], the “cytotoxicity (AK release)” value is listed as “not cytotoxic”. Also, the “impact on cellular ATP content” value in data set [3] is “no impact on cellular ATP content”. Also, the “increase in ROS compared to DMSO, factor” value in data set [4] is on record as “did not trigger ROS production”.
As for hemin [reference compound], in data set [1], the “viability of adult F. hepatica” value is “slight reduction in viability”. Also, the “impact on cellular ATP content” value in data set [3] is “no impact on cellular ATP content”.
